SMILES strings stand for the structures.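 Five concentrations, 48 hours, 96-well plates. GI50 is the concentration that inhibits growth by half. TGI marks complete inhibition of growth.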

What all share (experiment): growth of human tumour cells (NCI), 48 h
The test system of experiment [1] is CCRF-CEM leukemia.
Experiment [2] deals with COLO 205 colon.
In experiment [3] the test system is NCI-H23 lung.
The subject of experiment [4] is NCI-H522 lung.
Experiment [5] concerns OVCAR-4 ovarian.
The test system of experiment [6] is SF-268 CNS.
The subject of experiment [7] is SNB-19 CNS.
In experiment [8] the test system is MDA-MB-435.
Experiment [9] concerns PC-3 prostate.
Experiment [10] relates to MDA-N.

As to `Cc1cc(C)c(C2=NO[C@@H]3[C@H]2C(=O)C=C2N(Cc4ccccc4)CCO[C@@]23O)c(C)c1`, the TGI in experiment [1], in experiment [2], in [3], in experiment [4], in experiment [5] and in experiment [6] was over 100 µM throughout. The compound also yielded a TGI in experiment [7] of over 100 µM.

In the case of `CN(C)c1ccc(/C=C2\N=C(c3ccccc3)N(c3nc4ccc(Sc5ccccc5)cc4[nH]3)C2=O)cc1`, the TGI in experiment [1] is over 100 µM; in experiment [2] it was 45.9 µM; in experiment [8], 38.6 µM; in [3] it was over 100 µM; in [4] it was over 100 µM; in experiment [5] it was over 100 µM. For the same compound, the TGI in experiment [9], in experiment [6] and in [7] was over 100 µM in each case.

Regarding `CCOC(=O)/C(=C/c1cn(C(C)=O)c2ccccc12)P(=O)(OC)OC`, the TGI in experiment [1] was 68.1 µM; in [8], over 100 µM; in experiment [3] it was over 100 µM; in experiment [4], 79.3 µM; in experiment [5] it was over 100 µM; in experiment [9], over 100 µM.

In the case of `COc1cc2c(cc1OCCN1CCN(CCOc3cc4c(cc3OC)C(=O)N3CCC[C@H]3C=N4)CC1)N=C[C@@H]1CCCN1C2=O`, the GI50 in experiment [1] was 4.49 µM. Moreover, the TGI is over 100 µM in experiment [1]; over 90.4 µM in experiment [2]; 64.2 µM in experiment [8]; 46 µM in [3]; over 82.1 µM in experiment [4]; over 100 µM in [5]. Moreover, the figures for the TGI in experiment [9], in [6] and in experiment [7] were over 93.9 µM, over 100 µM and over 100 µM, respectively.

With `COc1cc(-c2cc(OC)c(OC)c3ccc(Br)cc23)c2cc(Br)ccc2c1OC`, the TGI in experiment [2] was over 100 µM; in [8] it was 46.1 µM; in [10] it was 42.7 µM; in experiment [3], 45 µM; in [4], 72.1 µM; in experiment [5], 31.1 µM. The TGI is 58 µM in [9], 50.8 µM in experiment [6] and over 100 µM in [7].

Regarding `O=c1[nH]c2ccccc2c(=O)n1/N=C\c1ccccc1O`, the TGI in [1], in [2], in experiment [8], in experiment [10], in experiment [3] and in experiment [9] was over 100 µM throughout. In addition, the TGI in [6] and in experiment [7] was over 100 µM each time.

`Cc1cc(C)n(C(=CC(=O)C(Cl)Cl)n2nc(C)cc2C)n1`: the TGI in experiment [1] was 4.46 µM; in experiment [2], 40 µM; in experiment [8], 11 µM; in [3], 13.2 µM; in experiment [4] it was 7.76 µM; in experiment [5] it was over 100 µM. Besides, the TGI in experiment [9] was 29.5 µM; in experiment [6] it was over 100 µM; in [7] it was 41.3 µM.

Regarding `CC(C)(C)c1cc(C(C)(C)C)c2sc(=O)oc2c1O`, the TGI in experiment [1] is over 100 µM; in experiment [2], 33.7 µM; in experiment [8] it was 25.6 µM; in [10], 29.9 µM; in experiment [4], 26.7 µM; in experiment [5], 27.6 µM. The TGI in experiment [9] was found to be 28 µM; in experiment [6], 26.4 µM; in [7] it was 32.2 µM.

With `CCOC(=O)CC1C(C(=O)OCC)=Cn2c([nH]c3cccc4cccc2c43)=C1C(=O)OCC` (centres undefined), the TGI in experiment [1], in experiment [2], in experiment [8], in experiment [10], in experiment [3] and in [5] was over 100 µM in each case. Moreover, the TGI in [9] and in [7] was over 100 µM throughout.

For the compound `Cc1cc(C)n(C(C)(C(=O)Cc2ccccc2)n2nc(C)cc2C)n1`, the TGI in experiment [2], in experiment [8], in experiment [10], in [3], in experiment [4] and in [5] was over 100 µM throughout. For the same compound, the TGI in [9], in experiment [6] and in [7] was over 100 µM each time.

Take `Nc1ncnc2c1ncn2C1C(O)C=C(CO)C1O` (centres undefined): the TGI in experiment [2], in [5], in experiment [6] and in experiment [7] was over 625 µM each time.

For `CCN(CCCl)c1cc(CN(C)C)cc(NC(=O)c2ccc(C(=O)Nc3cccc(N(CCCl)NN)c3)cc2)c1`, the TGI in experiment [1] amounted to 0.115 µM; in experiment [2], 0.199 µM; in experiment [8] it was 0.0389 µM; in experiment [10] it was 0.169 µM; in experiment [3] it was 0.626 µM; in experiment [5] it was 0.364 µM. Moreover, the TGI in experiment [9] was 0.0661 µM; in [6], 20.5 µM.

In the case of `CN(C)CCCNC(=O)N/N=C/c1ccccn1`, the TGI in [1], in experiment [2], in experiment [10], in [4], in experiment [5] and in [9] was over 10 µM throughout. This compound had a TGI in experiment [6] of over 10 µM.

Consider `CCOC(=O)CCC(NC(=O)c1ccc(NCc2ccc3nc(OC)c(OC)nc3c2)c2ccccc12)C(=O)OCC` (centres undefined), for which the TGI in [2], in experiment [8], in experiment [10], in experiment [3], in [4] and in experiment [5] was over 100 µM throughout. Also, the TGI in experiment [9], in experiment [6] and in experiment [7] was over 100 µM throughout.

Take `O=C(c1ccccc1)C1C(c2ccccc2[N+](=O)[O-])N1C1CCCCC1` (centres undefined): the TGI worked out at 20.4 µM in experiment [2]; 10.8 µM in experiment [8]; 19.7 µM in experiment [10]; 37.4 µM in [3]; 5.9 µM in experiment [4]; 22.7 µM in [5]. Also, the TGI in [9] turned out to be 15.9 µM; in experiment [6] it was 38.3 µM; in experiment [7] it was 32.3 µM.

As for `Clc1ccc(-c2nn3c(COc4ccc(OCc5nnc6sc(-c7ccc(Cl)cc7)nn56)c(Cl)c4)nnc3s2)cc1`, the TGI was over 100 µM in [2]; over 100 µM in [8]; 67.2 µM in experiment [10]; 62.3 µM in experiment [3]; 37.4 µM in experiment [4]; over 100 µM in [5]. Besides, the TGI in [9] was over 100 µM; in experiment [6], 35.6 µM; in experiment [7], 31.7 µM.

As for `CC(C)C(Nc1c2ccccc2[n+](C)c2ccccc12)C(=O)O` (centres undefined), the TGI in experiment [2], in experiment [3], in [4], in [5], in experiment [6] and in experiment [7] was over 100 µM each time.

Take `CC1(c2ccc(Cl)cc2)c2ccccc2C(=O)N1CCCN1C(=O)c2ccccc2C1=O` (centres undefined): the TGI in experiment [1] was over 100 µM; in experiment [2], 36.2 µM; in experiment [8], over 100 µM; in experiment [10], over 100 µM; in [3], 97.9 µM; in experiment [5] it was over 100 µM. The TGI in experiment [9] was over 100 µM; in [6], over 100 µM; in experiment [7], 78.5 µM.

For the compound `COc1ccc(C2CC(c3cccc(Nc4ccncc4)c3)=NN2c2ccccc2)cc1` (centres undefined), the GI50 in experiment [1] was 3.44 µM; in experiment [2], 2660 nM; in experiment [8], 1780 nM; in experiment [3], 1880 nM; in experiment [4], 1810 nM; in [5], 1790 nM. Besides, the GI50 is 1680 nM in experiment [9], 2910 nM in experiment [6] and 2200 nM in experiment [7]. For the same compound, the TGI amounted to 11.6 µM in experiment [1]; 6.14 µM in experiment [2]; 3.49 µM in experiment [8]; 3.87 µM in experiment [3]; 3.81 µM in [4]; 3.62 µM in experiment [5]. Besides, the TGI amounted to 3.38 µM in experiment [9], 9.98 µM in [6] and 5.79 µM in experiment [7].

As for `Fc1cccc(C2ON=C(c3ccccc3)N2C23CC4CC(CC(C4)C2)C3)c1` (centres undefined), the TGI in experiment [2], in experiment [8], in experiment [10], in [3], in experiment [4] and in [5] was over 10 µM throughout. Besides, the TGI in [9], in experiment [6] and in [7] was over 10 µM throughout.

As to `CN(Cc1ccccc1)C(=S)S`, the TGI in experiment [1] is 49.2 µM; in experiment [2], over 100 µM; in experiment [8] it was over 100 µM; in experiment [10] it was over 100 µM; in [3], over 100 µM; in [4], over 100 µM. Also, the TGI in experiment [5] and in experiment [6] was over 100 µM throughout.

Regarding `COc1cc2ccc(C(C)NCC#N)cc2cc1OC` (centres undefined), the TGI in experiment [2], in [8], in experiment [10], in experiment [4], in experiment [5] and in experiment [9] was over 100 µM throughout. Moreover, the TGI in experiment [6] and in experiment [7] was over 100 µM throughout.

With `O=c1ccc(=O)c2c1c1[nH]c3ccccc3c1c1c(=O)c3ccccc3c(=O)c21`, the TGI in experiment [1], in experiment [2], in experiment [8], in experiment [3], in experiment [4] and in experiment [5] was over 10 µM each time. Also, the TGI in experiment [9], in experiment [6] and in experiment [7] was over 10 µM each time.

`c1csc(-c2cc(-c3ccsc3)cs2)c1`: the TGI in experiment [1] is over 100 µM; in [2], over 100 µM; in [8], over 100 µM; in [10] it was over 100 µM; in experiment [3], 93.8 µM; in experiment [5], over 100 µM. The TGI in experiment [9] and in experiment [6] was over 100 µM throughout.

On to `O=C(O)C1C2OC(C(Br)C2Br)C1C(=O)O` (centres undefined), for which the TGI in experiment [2], in experiment [8], in experiment [10], in experiment [3], in experiment [4] and in experiment [5] was over 100 µM throughout. Besides, the TGI in experiment [9], in experiment [6] and in [7] was over 100 µM each time.

For the compound `Cc1cc(Br)c(O)c(-c2cscn2)c1`, the TGI in experiment [1] came to 28.6 µM; in [2], 51.8 µM; in experiment [8] it was 41.9 µM; in experiment [3] it was 35.6 µM; in experiment [5], 28.7 µM; in experiment [9], 27.7 µM. In experiment [7], the TGI is 31.2 µM.

As to `CCCCCCCCCCCCCCCC[N+](C)(C)CCl`, the TGI in experiment [2] was 4.16 µM; in experiment [8], over 39.2 µM; in [10], 15.4 µM; in experiment [3] it was 27.8 µM; in experiment [5], 8.44 µM; in experiment [9] it was 7.96 µM. The figures for the TGI in experiment [6] and in [7] were 9.38 µM and 3.81 µM, respectively.

Regarding `Clc1ccc(C2=CC(c3ccccc3)N3C(=N[C@H]4CCCC[C@@H]43)N2)cc1` (some centres undefined), the TGI was over 100 µM in [1]; 4.23 µM in experiment [2]; 20.4 µM in experiment [8]; 18.9 µM in [10]; 20.6 µM in experiment [3]; 18.4 µM in experiment [5]. Moreover, the TGI came to 19.5 µM in experiment [9], 25.2 µM in experiment [6] and 17.6 µM in experiment [7].

As for `COc1cc(C2C3=C(NC(=O)C2C#N)c2ccc4ccccc4c2OCC3)cc(OC)c1OC` (centres undefined), the TGI in experiment [1] was over 100 µM; in experiment [2], 33.1 µM; in experiment [8], over 100 µM; in experiment [3], over 100 µM; in [4], over 100 µM; in experiment [5], over 100 µM. The TGI in experiment [9] was over 100 µM; in experiment [6], 64.1 µM; in experiment [7], over 100 µM.

For the compound `COc1cc(CNc2nc3c(NC(C)=O)cc(C(F)(F)F)cc3nc2-c2ccccc2)cc(OC)c1OC`, the TGI in experiment [1], in experiment [2], in [4], in experiment [5], in experiment [6] and in experiment [7] was over 100 µM throughout.

Consider `N#Cc1nc(-c2ccsc2)oc1N`, for which the TGI in experiment [1], in experiment [8], in experiment [10], in [9], in experiment [6] and in experiment [7] was over 100 µM throughout.

Source of the values: PubChem BioAssay (NCI).
